{"source": "ChEMBL document CHEMBL4130457", "about": "“Discovery of AZD-2098 and AZD-1678, Two Potent and Bioavailable CCR4 Receptor Antagonists” (ACS Med Chem Lett, 2017)", "key": {"[1]": {"tested_on": "Rattus norvegicus", "experiment": "Terminal trough concentration in OVA-induced Brown Norway rat plasma at 0.22 to 2.2 umol/kg, po bid measured 12 hrs post last dose", "format": "ADME, organism-based", "conditions": "in vivo, BLD = below limit of detection"}, "[2]": {"target": "T1, C-C chemokine receptor type 7 (Homo sapiens) (UniProt P32248)", "T1 sequence (whole entry)": "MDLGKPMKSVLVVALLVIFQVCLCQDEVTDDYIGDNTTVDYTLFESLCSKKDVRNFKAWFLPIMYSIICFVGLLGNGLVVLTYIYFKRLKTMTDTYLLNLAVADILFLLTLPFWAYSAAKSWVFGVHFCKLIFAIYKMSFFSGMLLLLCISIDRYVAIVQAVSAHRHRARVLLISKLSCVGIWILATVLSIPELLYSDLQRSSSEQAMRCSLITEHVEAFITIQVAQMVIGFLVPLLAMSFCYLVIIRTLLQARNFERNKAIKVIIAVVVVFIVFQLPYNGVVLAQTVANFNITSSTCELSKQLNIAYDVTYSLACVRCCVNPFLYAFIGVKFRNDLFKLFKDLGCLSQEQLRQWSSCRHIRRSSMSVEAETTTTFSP", "experiment": "Antagonist activity at CCR7 (unknown origin) at 10 uM", "format": "functional"}, "[3]": {"experiment": "Lipophilicity, log P of the compound", "format": "physicochemical", "conditions": "octanol/water"}, "[4]": {"experiment": "Clearance in rat at 9 umol/kg, po or 3 umol/kg, iv", "format": "ADME, organism-based", "conditions": "in vivo"}, "[5]": {"experiment": "Lipophilicity, log D of the compound", "format": "physicochemical", "conditions": "octanol/water"}, "[6]": {"target": "T2, C-C chemokine receptor type 4 (Homo sapiens, UniProt P51679)", "T2 sequence (P51679 whole entry)": "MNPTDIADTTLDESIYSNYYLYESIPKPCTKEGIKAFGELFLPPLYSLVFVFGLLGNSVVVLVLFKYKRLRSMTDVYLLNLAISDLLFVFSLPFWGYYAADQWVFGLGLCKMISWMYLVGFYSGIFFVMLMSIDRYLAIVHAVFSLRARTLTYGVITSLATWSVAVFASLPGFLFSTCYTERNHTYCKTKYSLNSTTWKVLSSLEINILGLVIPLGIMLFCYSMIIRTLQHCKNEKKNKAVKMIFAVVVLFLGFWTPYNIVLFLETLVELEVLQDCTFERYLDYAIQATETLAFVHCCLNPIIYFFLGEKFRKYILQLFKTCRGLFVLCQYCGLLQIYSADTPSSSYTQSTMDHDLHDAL", "experiment": "Antagonist activity at human CCR4 expressed in CHO cells coexpressing CD4+ assessed as inhibition of CCL22 induced Ca2+ mobilization", "format": "functional, cell-based"}, "[7]": {"target": "C-C chemokine receptor type 8 (Homo sapiens) (UniProt P51685)", "sequence (P51685 whole entry)": "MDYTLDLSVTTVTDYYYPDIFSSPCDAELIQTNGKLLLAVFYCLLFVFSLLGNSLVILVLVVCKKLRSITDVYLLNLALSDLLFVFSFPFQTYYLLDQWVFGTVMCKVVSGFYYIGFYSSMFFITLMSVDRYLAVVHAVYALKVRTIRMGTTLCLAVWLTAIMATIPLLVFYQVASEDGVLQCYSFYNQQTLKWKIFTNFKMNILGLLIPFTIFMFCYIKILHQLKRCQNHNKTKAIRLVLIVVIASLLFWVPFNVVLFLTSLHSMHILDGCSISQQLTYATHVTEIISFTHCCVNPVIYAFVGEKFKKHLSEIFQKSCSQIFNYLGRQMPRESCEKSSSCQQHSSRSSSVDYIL", "experiment": "Antagonist activity at CCR8 (unknown origin) at 10 uM", "format": "functional"}, "[8]": {"target": "T3, C-C chemokine receptor type 4 (Canis lupus familiaris, UniProt Q8MJW8)", "T3 sequence (Q8MJW8 whole entry)": "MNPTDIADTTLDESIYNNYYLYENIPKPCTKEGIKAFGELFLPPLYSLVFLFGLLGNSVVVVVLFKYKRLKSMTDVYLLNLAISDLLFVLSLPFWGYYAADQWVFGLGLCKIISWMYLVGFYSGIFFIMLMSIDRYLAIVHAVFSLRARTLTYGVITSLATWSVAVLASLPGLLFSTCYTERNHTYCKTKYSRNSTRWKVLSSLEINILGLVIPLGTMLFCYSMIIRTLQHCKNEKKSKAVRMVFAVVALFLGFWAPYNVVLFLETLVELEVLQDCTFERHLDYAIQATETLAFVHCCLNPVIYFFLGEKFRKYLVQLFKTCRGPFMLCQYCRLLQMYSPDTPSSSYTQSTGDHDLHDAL", "experiment": "Antagonist activity at dog CCR4"}, "[9]": {"target": "T4, C-X-C chemokine receptor type 1 (Homo sapiens) (UniProt P25024)", "T4 sequence (whole entry)": "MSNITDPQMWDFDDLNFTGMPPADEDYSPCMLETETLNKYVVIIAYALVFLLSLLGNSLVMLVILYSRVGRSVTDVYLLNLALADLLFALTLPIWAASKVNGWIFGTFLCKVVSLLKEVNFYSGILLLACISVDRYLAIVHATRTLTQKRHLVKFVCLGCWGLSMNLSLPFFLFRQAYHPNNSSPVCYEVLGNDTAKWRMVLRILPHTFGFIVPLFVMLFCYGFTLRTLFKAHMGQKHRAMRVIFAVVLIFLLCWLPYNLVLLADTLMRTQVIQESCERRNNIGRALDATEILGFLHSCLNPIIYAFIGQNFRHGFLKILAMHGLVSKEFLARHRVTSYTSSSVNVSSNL", "experiment": "Antagonist activity at CXCR1 (unknown origin) at 10 uM", "format": "functional"}, "[10]": {"experiment": "Terminal trough concentration in OVA-induced Brown Norway rat plasma at 7.5 umol/kg, po bid measured 12 hrs post last dose", "format": "ADME, organism-based", "conditions": "read-out: Cmin"}, "[11]": {"experiment": "Half life in dog at 9 umol/kg, po or 3 umol/kg, iv", "format": "ADME, organism-based, Canis lupus familiaris", "conditions": "in vivo"}, "[12]": {"experiment": "Terminal trough concentration in OVA-induced Brown Norway rat plasma at 15 umol/kg, po bid measured 12 hrs post last dose", "format": "ADME, organism-based", "conditions": "read-out: Cmin"}}, "note": "The source made the active and inactive calls. The calls are words filed in the database; no cut-off is given here.", "data": [{"smiles": "COc1nccnc1NS(=O)(=O)c1cccc(Cl)c1Cl", "values": [{"measurement": "Cmin", "setting": "[1]", "value": "Bld"}, {"measurement": "Activity", "setting": "[2]", "value": "inactive"}, {"measurement": "logP", "setting": "[3]", "value": 2.5}, {"measurement": "clearance", "setting": "[4]", "value": 2, "unit": "mL/min/kg"}, {"measurement": "logD", "setting": "[5]", "value": 0.35}, {"measurement": "IC50", "setting": "[6]", "value": 31.6, "unit": "nM"}, {"measurement": "Activity", "setting": "[7]", "value": "inactive"}, {"measurement": "IC50", "setting": "[8]", "value": 25.1, "unit": "nM"}, {"measurement": "Activity", "setting": "[9]", "value": "inactive"}, {"measurement": "concentration at 12 h", "setting": "[10]", "value": 140, "unit": "nM"}, {"measurement": "half-life", "setting": "[11]", "value": 1, "unit": "h"}, {"measurement": "concentration at 12 h", "setting": "[12]", "value": 490, "unit": "nM"}]}]}
